We go through two compounds from paper PMC10940605, “Design, synthesis and in vitro anticancer activity of some new lomefloxacin derivatives” (Scientific Reports, 2024).

Series [1] deals with BT-549. The series is described as follows: NCI-60 SRB screen. The format is cell-based. The settings on record: Homo sapiens; BT-549, 10^–5 Molar; read-out: Percent growth inhibition. As for the experimental part: (§1) All newly synthesized compounds were selected and screened for anticancer activity against 60 human cancer cell lines representing 9 types of tumors including leukemia, melanoma, lung, colon, CNS, ovarian, renal, prostate, and breast cancers at the National Cancer Institute (NCI), Bethesda, USA. Screening was performed utilizing a single dose (10^−5 M concentration) and cells were incubated for 48 h. The end point was determined using sulforhodamine B (SRB) dye.
(§2) In this study, all the 16 newly synthesized compounds were submitted to the National Cancer Institute (USA) for anticancer evaluation and were selected and evaluated using 60 different human tumor cell lines representing lung, colon, CNS, ovarian, renal, prostate, breast cancers as well as leukemia and melanoma. A single dose (10^–5 Molar) was used for the initial screening for evaluation of anticancer activity. The 60 human cancer cell lines were provided by the national cancer institute biomedical research campus in Frederick, Maryland.
(§3) 60 different human cancer cell lines were utilized to screen the newly synthesized compounds for anticancer activity according to the previously reported standard procedure[24]–[26] as follows: • 96 well microtiter plates were used to inoculate the cells at […] ranging from 4000–5000 cells/well depending on the replication time of individual cell lines. Roswell Park Memorial Institute culture medium (RPMI 1640 medium) containing 2 mM L-glutamine and fetal bovine serum was used to grow the cells at 37 °C, 5% CO2, 95% air and 100% relative humidity for 24 h. • Fixation of cells in two plates of each cell line in situ was done using trichloroacetic acid (TCA). This represented the measurement of cell population at the time of drug addition (Tz). • Dimethyl sulfoxide (DMSO) was used to dissolve the synthesized compounds at 400-fold the desired final maximum concentration and frozen prior to use. This frozen concentrate was melted and diluted to twice the final concentration with complete medium containing 50 µg/mL gentamycin at time of drug addition. • The final compound concentration was obtained by adding 100 µL of the synthesized compounds to the appropriate microtiter wells already containing 100 µL followed by incubation of the plates at 37 °C, 5% CO2, 95% air and 100% relative humidity for 48 h. • Fixation of the cells was achieved by gentle addition of 50 µL of cold 50% (w/v) TCA followed by incubation for 60 min at 4 °C. The supernatant was then discarded and the plates are washed 5 times with tap water and air dried. • Sulphorhodamine B (SRB) solution (100 µL) at 0.4% (w/v) in 1% acetic acid was added to each plate followed by incubation for 10 min at room temperature. The unbound dye was then removed by washing five times with 1% acetic acid and plates were air dried. • Dissolution of the bound stain was done using […] trizma base and the absorbance was read at […] wavelength using an automated plate reader. • The percentage growth inhibition was calculated as follows: Ti-Tz/C-Tz×100forconcentrationswhichTi≥Tz Ti-Tz/Tz×100forconcentrationswhichTi<Tz • Time zero (Tz) • Control growth (C) • Test growth in the presence of drug (Ti)

Series [2] relates to CAKI-1. The series is described as follows: NCI-60 SRB screen. The settings on record: Homo sapiens; CAKI-1, 10^–5 Molar; read-out: Percent growth inhibition. The format is cell-based. As for the experimental part:
as §1, §2, §3

Series [3] has as its system HS 578T. The series is described as follows: NCI-60 SRB screen. The class given is cell-based. The settings on record: Homo sapiens, 10^–5 Molar, read-out: Percent growth inhibition. As to the method:
as §1, §2, §3

Series [4] relates to LOX IMVI. The series is described as follows: NCI-60 SRB screen. The format is cell-based. The settings on record: Homo sapiens, 10^–5 Molar, read-out: Percent growth inhibition. As to the method: as §1, §2, §3
Series [5] has as its system MCF7. The series is described as follows: NCI-60 SRB screen. The format is cell-based. The settings on record: Homo sapiens; MCF7, 10^–5 Molar; read-out: Percent growth inhibition. As to the method:
as §1, §2, §3

Series [6] concerns MDA-MB-231/ATCC. The series is described as follows: NCI-60 SRB screen. The settings on record: Homo sapiens, 10^–5 Molar, read-out: Percent growth inhibition. The class given is cell-based. As for the experimental part: as §1, §2, §3
In series [7] the test system is MDA-MB-435. The series is described as follows: NCI-60 SRB screen. The settings on record: Homo sapiens; MDA-MB-435, 10^–5 Molar; read-out: Percent growth inhibition. The class given is cell-based. As for the experimental part: as §1, §2, §3
Series [8] concerns NCI-H522. The series is described as follows: NCI-60 SRB screen. The settings on record: Homo sapiens; NCI-H522, 10^–5 Molar; read-out: Percent growth inhibition. The class given is cell-based. As for the experimental part: as §1, §2, §3
The test system of series [9] is NCI/ADR-RES. The series is described as follows: NCI-60 SRB screen. The class given is cell-based. The settings on record: Homo sapiens, 10^–5 Molar, read-out: Percent growth inhibition. As for the experimental part: as §1, §2, §3
The subject of series [10] is OVCAR-4. The series is described as follows: NCI-60 SRB screen. The format is cell-based. The settings on record: Homo sapiens; OVCAR-4, 10^–5 Molar; read-out: Percent growth inhibition. As to the method:
as §1, §2, §3

The subject of series [11] is PC-3. The series is described as follows: NCI-60 SRB screen. The format is cell-based. The settings on record: Homo sapiens; PC-3, 10^–5 Molar; read-out: Percent growth inhibition. As to the method: as §1, §2, §3
Series [12] concerns SF-539. The series is described as follows: NCI-60 SRB screen. The class given is cell-based. The settings on record: Homo sapiens; SF-539, 10^–5 Molar; read-out: Percent growth inhibition. As to the method: as §1, §2, §3
For series [13], the system named is SK-MEL-2. The series is described as follows: NCI-60 SRB screen. The format is cell-based. The settings on record: Homo sapiens; SK-MEL-2, 10^–5 Molar; read-out: Percent growth inhibition. As for the experimental part:
as §1, §2, §3

In series [14] the test system is SNB-19. The series is described as follows: NCI-60 SRB screen. The format is cell-based. The settings on record: Homo sapiens; SNB-19, 10^–5 Molar; read-out: Percent growth inhibition. As for the experimental part:
as §1, §2, §3

The test system of series [15] is SNB-75. The series is described as follows: NCI-60 SRB screen. The class given is cell-based. The settings on record: Homo sapiens; SNB-75, 10^–5 Molar; read-out: Percent growth inhibition. As to the method: as §1, §2, §3
For series [16], the system named is SW-620. The series is described as follows: NCI-60 SRB screen. The format is cell-based. The settings on record: Homo sapiens; SW-620, 10^–5 Molar; read-out: Percent growth inhibition. As for the experimental part: as §1, §2, §3
Series [17] concerns UACC-62. The series is described as follows: NCI-60 SRB screen. The format is cell-based. The settings on record: Homo sapiens; UACC-62, 10^–5 Molar; read-out: Percent growth inhibition. As for the experimental part:
as §1, §2, §3

Series [18] deals with UO-31. The series is described as follows: NCI-60 SRB screen. The format is cell-based. The settings on record: Homo sapiens; UO-31, 10^–5 Molar; read-out: Percent growth inhibition. As to the method:
as §1, §2, §3

For series [19], the system named is 60 human cancer cell lines. The series is described as follows: NCI-60 SRB screen, whole panel. The format is cell-based. The settings on record: Homo sapiens, 48 h; One Dose Mean Graph, Conc 1.00E-5 Molar; read-out: Mean Growth Percent.
Series [20] relates to leukemia SR cells. The series is described as follows: Cell cycle analysis, PI flow cytometry. The format is cell-based, human. Further details: increase of cells at pre-G1 phase vs control: concentration or dose not given beside the values. As for the experimental part:
The cells were washed twice using Ice-cold phosphate buffer saline (PBS). • Centrifugation was used to collect the cells, then the cells were fixed in 70% (v/v) ethanol, washed with PBS and re-suspended with 0.10 mg/mL RNase. • After that, cells were stained with […] propidium iodide (PI) and evaluated by flow cytometry using FACSCalibur (Becton Dickinson).
For orientation: In flow cytometry, cells or beads pass a laser one at a time.

Series [21] addresses T1, topoisomerase IIα (Homo sapiens, UniProt P11388).
T1 construct: purchased MBS2885049
The series is described as follows: Topoisomerase ELISA kit inhibitory assay. The format is biochemical. The settings on record: four concentrations. As to the method: Four concentrations were used and IC50 was calculated.
Compound 3a,b,c,e were evaluated for topoisomerase IIα inhibitory activity utilizing the human DNA topoisomerase ELISA kit (MBS2885049) and following the provided procedure: • Standards and the tested compound were dissolved in sample diluent and tenfold serial dilution was achieved. • Biotin-conjugated antibody and avidin conjugated Horseradish Peroxidase (HRP-avidin) were diluted to tenfolds. • 100 µL of each concentration of standard or test compounds were added to each well and incubated at 37 °C for 1 h. • Removal of the liquid in each well was done. • To each well 100 µL of Biotin-conjugated antibody solution was added followed by incubation for 1 h at 37 °C. • The microtiter plate was allowed to aspirate and washed 3 times. • 100 µL of avidin conjugated Horseradish Peroxidase (HRP-avidin) solution was added to each well and incubatation for 1 h at 37 °C was achieved. • The plate was aspirated and washed 5 times. • Addition of 90 µL of 3,3′,5,5′-tetramethylbenzidine (TMB) substrate to each well followed by plate incubated for 30 min at 37 °C and protection from light was done. • 50 µL stop solution was added.

Series [22] has as its system leukemia SR cells. The series is described as follows: Apoptosis, Annexin-V-FITC/PI. The settings on record: 3e at 1.90 µM, 24 h.

T1 sequence (P11388 whole entry): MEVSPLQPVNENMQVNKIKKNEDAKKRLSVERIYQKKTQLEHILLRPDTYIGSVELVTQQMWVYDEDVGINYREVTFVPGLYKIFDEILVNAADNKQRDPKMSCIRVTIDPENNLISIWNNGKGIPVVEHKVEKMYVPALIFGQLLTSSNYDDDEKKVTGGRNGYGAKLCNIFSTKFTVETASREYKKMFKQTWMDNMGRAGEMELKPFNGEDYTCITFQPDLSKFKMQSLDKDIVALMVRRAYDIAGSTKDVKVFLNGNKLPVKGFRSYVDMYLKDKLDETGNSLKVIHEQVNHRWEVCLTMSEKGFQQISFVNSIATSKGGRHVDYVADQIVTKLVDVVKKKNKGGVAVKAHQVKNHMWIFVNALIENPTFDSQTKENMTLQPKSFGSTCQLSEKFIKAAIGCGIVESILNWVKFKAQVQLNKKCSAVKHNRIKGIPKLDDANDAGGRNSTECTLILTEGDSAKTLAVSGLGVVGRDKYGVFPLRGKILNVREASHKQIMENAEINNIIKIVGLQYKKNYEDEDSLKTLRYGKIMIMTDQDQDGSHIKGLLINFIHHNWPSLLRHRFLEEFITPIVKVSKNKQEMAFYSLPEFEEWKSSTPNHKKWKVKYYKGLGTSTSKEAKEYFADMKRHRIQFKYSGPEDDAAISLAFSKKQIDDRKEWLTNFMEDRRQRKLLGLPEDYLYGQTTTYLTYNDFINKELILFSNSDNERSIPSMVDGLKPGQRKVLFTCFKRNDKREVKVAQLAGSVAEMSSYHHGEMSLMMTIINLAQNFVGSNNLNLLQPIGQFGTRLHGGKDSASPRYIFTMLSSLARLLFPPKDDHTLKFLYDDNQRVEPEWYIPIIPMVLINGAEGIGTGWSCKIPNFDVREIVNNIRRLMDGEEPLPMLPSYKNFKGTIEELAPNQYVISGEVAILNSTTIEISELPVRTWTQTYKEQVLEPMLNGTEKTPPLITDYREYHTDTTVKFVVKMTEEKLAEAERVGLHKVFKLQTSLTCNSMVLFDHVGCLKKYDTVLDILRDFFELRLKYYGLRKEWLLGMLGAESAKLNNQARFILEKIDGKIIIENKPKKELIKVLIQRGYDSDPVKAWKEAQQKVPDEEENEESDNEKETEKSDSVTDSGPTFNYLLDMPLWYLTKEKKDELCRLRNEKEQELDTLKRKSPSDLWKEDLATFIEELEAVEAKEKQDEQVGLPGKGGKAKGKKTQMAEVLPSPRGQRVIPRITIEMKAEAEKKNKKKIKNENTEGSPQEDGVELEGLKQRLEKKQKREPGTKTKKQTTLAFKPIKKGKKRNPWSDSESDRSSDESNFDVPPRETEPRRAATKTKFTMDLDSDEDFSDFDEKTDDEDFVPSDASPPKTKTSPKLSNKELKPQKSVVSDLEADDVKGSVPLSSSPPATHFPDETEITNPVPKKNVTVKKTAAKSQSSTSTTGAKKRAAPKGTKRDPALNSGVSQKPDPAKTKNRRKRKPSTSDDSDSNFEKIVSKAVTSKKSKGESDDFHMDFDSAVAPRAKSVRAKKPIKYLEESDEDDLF

By inhibition is commonly meant the drop in the measured response relative to a control, in per cent. As usually defined, the melting point is the temperature of the solid-liquid transition. Regarding `CCn1cc(C(=O)O)c(=O)c2cc(F)c(N3CCN(CC(=O)Nc4ccc(S(N)(=O)=O)cc4)C(C)C3)c(F)c21` (stereo not drawn) [Compound 5d, 1-Ethyl-6,8-difluoro-7-(3-methyl-4-(2-oxo-2-((4-sulfamoylphenyl)amino)ethyl)piperazin-1-yl)-4-oxo-1,4-dihydroquinoline-3-carboxylic acid], the melting point was 228 to 230 °C. In addition, the inhibition at 10 µM in series [1] turned out to be 0.7%. Further, the inhibition at 10 µM in series [2] came out at 3.88%. In series [3], the inhibition at 10 µM was 0.41%. For the same compound, the inhibition at 10 µM in series [4] turned out to be 4.12%. Also, the inhibition at 10 µM in series [5] came to 5.22%. The inhibition at 10 µM in [6] was found to be 0.31%. In addition, in series [7], the inhibition at 10 µM is 1.15%. The inhibition at 10 µM in series [8] was 6.33%. Moreover, in series [9], the inhibition at 10 µM turned out to be 0.27%. Moreover, in [10], the inhibition at 10 µM was found to be 3.58%. For the same compound, the inhibition at 10 µM in [11] came out at 1.64%. Further, the inhibition at 10 µM in series [12] worked out at 0.93%. Besides, the inhibition at 10 µM in series [13] was 2.33%. Further, the inhibition at 10 µM in series [14] came to 3.07%. Also, the inhibition at 10 µM in [15] was 11.9%. For the same compound, in series [16], the inhibition at 10 µM was determined as 0.37%. Besides, the inhibition at 10 µM in series [17] is 9.32%. The inhibition at 10 µM in series [18] was determined as 12.9%. In addition, the activity at 10 µM in series [19] stood at 103%.

For orientation: IC50 means the concentration needed to halve the response being measured. For the compound `COc1cccc2c1C(=O)c1c(O)c3c(c(O)c1C2=O)C[C@@](O)(C(=O)CO)C[C@@H]3O[C@H]1C[C@H](N)[C@H](O)[C@H](C)O1` [Doxorubicin, reference compound], the “increase of cells at pre-G1 phase vs control” value in series [20] is recorded as 8.62 folds. In series [20] (3e at 1.90 µM, 24 h), the “%G0-G1” value was 25.18%, the “%G2-M” value is 46.06%, the “%Pre-G1” value turned out to be 22.17% and the “%S” value was determined as 28.76%. The same compound had an IC50 in series [21] of 610 nM. In series [22], the “Apoptosis %Early” value came out at 5.88%, the “Apoptosis %Late” value came to 12.21%, the “Apoptosis %Total” value is listed as 22.17% and the Necrosis turned out to be 4.08%.
